Assay results reported in publication PMC5218480 (PLoS ONE, 2017).

System: MV-4-11 cells
Assay: Gene expression microarray analysis (Affymetrix PrimeView) and GSEA
Format: cell-based, human
Design: RFU PODN (11730768_x_at) / Fold change /veh PODN (11730768_x_at) / RFU LINC00158 (11744669_a_at) / Fold change /veh LINC00158 (11744669_a_at) / RFU DUSP10 (11751237_a_at) / Fold change /veh DUSP10 (11751237_a_at) / RFU ID3 (11757404_x_at) / Fold change /veh ID3 (11757404_x_at) / RFU PLEKHG5 (11737974_s_at) / Fold change /veh PLEKHG5 (11737974_s_at) / RFU LRRC4B (11730491_at) / Fold change /veh LRRC4B (11730491_at) / RFU GIMAP4 (11747438_a_at) / Fold change /veh GIMAP4 (11747438_a_at) / RFU KRT8 (11758183_x_at) / Fold change /veh KRT8 (11758183_x_at) / RFU CNN1 (11734310_a_at) / Fold change /veh CNN1 (11734310_a_at) / RFU VPS37D (11726825_at) / Fold change /veh VPS37D (11726825_at) / RFU C10orf10 (11716522_x_at) / Fold change /veh C10orf10 (11716522_x_at) / RFU KIR2DL2 /// KIR2DL4 /// KIR2DL5A /// KIR2DL5B /// KIR2DS1 /// KIR2DS2 /// KIR2DS3 /// KIR2DS4 /// KIR3DL3 /// KIR3DL3 /// KIR3DS1 (11738374_at) / Fold change /veh KIR2DL2 /// KIR2DL4 /// KIR2DL5A /// KIR2DL5B /// KIR2DS1 /// KIR2DS2 /// KIR2DS3 /// KIR2DS4 /// KIR3DL3 /// KIR3DL3 /// KIR3DS1 (11738374_at) / RFU C1QL1 (11718748_at) / Fold change /veh C1QL1 (11718748_at) / RFU TMPRSS4 (11747572_a_at) / Fold change /veh TMPRSS4 (11747572_a_at) / RFU HAMP (11756126_x_at) / Fold change /veh HAMP (11756126_x_at) / RFU RNFT2 (11725882_a_at) / Fold change /veh RNFT2 (11725882_a_at) / RFU NR4A2 (11747474_a_at) / Fold change /veh NR4A2 (11747474_a_at) / RFU ABCC12 (11746883_a_at) / Fold change /veh ABCC12 (11746883_a_at) / RFU TMEM136 (11760407_x_at) / Fold change /veh TMEM136 (11760407_x_at) / RFU CLDN22 /// WWC2 (11732394_at) / Fold change /veh CLDN22 /// WWC2 (11732394_at) / RFU HLA-DPB1 (11760878_x_at) / Fold change /veh HLA-DPB1 (11760878_x_at) / RFU SPINT1 (11716480_a_at) / Fold change /veh SPINT1 (11716480_a_at) / RFU GAP43 (11754022_s_at) / Fold change /veh GAP43 (11754022_s_at) / RFU A4GNT (11735810_at) / Fold change /veh A4GNT (11735810_at) / RFU PRB3 (11715151_x_at) / Fold change /veh PRB3 (11715151_x_at) / RFU TUBB4B (11761932_at) / Fold change /veh TUBB4B (11761932_at) / RFU CAPN14 (11732068_a_at) / Fold change /veh CAPN14 (11732068_a_at) / RFU TMCC2 (11721928_a_at) / Fold change /veh TMCC2 (11721928_a_at) / RFU IRGQ (11745062_a_at) / Fold change /veh IRGQ (11745062_a_at) / RFU FAM174B (11720279_a_at) / Fold change /veh FAM174B (11720279_a_at) / RFU TMPRSS4 (11748680_a_at) / Fold change /veh TMPRSS4 (11748680_a_at) / RFU FAM212B (11763350_a_at) / Fold change /veh FAM212B (11763350_a_at) / RFU PLEKHG5 (11743358_a_at) / Fold change /veh PLEKHG5 (11743358_a_at) / RFU ZSCAN30 (11745921_a_at) / Fold change /veh ZSCAN30 (11745921_a_at) / RFU CMKLR1 (11741424_a_at) / Fold change /veh CMKLR1 (11741424_a_at) / RFU LOC101060620 /// MAPK8IP1 (11723275_at) / Fold change /veh LOC101060620 /// MAPK8IP1 (11723275_at) / RFU SPTSSB (11747773_x_at) / Fold change /veh SPTSSB (11747773_x_at) / RFU PRSS12 (11739890_at) / Fold change /veh PRSS12 (11739890_at) / RFU BIN1 (11741810_x_at) / Fold change /veh BIN1 (11741810_x_at) / RFU WNT11 (11732464_a_at) / Fold change /veh WNT11 (11732464_a_at) / RFU C10orf10 (11716521_a_at) / Fold change /veh C10orf10 (11716521_a_at) / RFU C5orf56 (11738089_at) / Fold change /veh C5orf56 (11738089_at) / RFU CYB561 (11721691_x_at) / Fold change /veh CYB561 (11721691_x_at) / RFU ANKRD19P (11752326_a_at) / Fold change /veh ANKRD19P (11752326_a_at) / RFU OR2T12 /// OR2T33 /// OR2T8 (11738714_s_at) / Fold change /veh OR2T12 /// OR2T33 /// OR2T8 (11738714_s_at) / RFU VCAN (11748164_a_at) / Fold change /veh VCAN (11748164_a_at) / RFU JSRP1 (11732532_at) / Fold change /veh JSRP1 (11732532_at) / RFU KRTAP10-11 (11738290_x_at) / Fold change /veh KRTAP10-11 (11738290_x_at) / RFU MYO3A (11730013_a_at) / Fold change /veh MYO3A (11730013_a_at) / RFU EBF3 (11725865_a_at) / Fold change /veh EBF3 (11725865_a_at) / RFU CAMK2N1 (11719241_x_at) / Fold change /veh CAMK2N1 (11719241_x_at) / RFU C5orf56 (11738088_a_at) / Fold change /veh C5orf56 (11738088_a_at) / RFU OLFML3 (11715873_a_at) / Fold change /veh OLFML3 (11715873_a_at) / RFU LOC100653217 /// NTM (11731650_a_at) / Fold change /veh LOC100653217 /// NTM (11731650_a_at) / RFU MAPK11 (11762145_a_at) / Fold change /veh MAPK11 (11762145_a_at) / RFU FIZ1 (11724087_x_at) / Fold change /veh FIZ1 (11724087_x_at) / RFU OASL (11726364_x_at) / Fold change /veh OASL (11726364_x_at) / RFU SOX15 (11748057_x_at) / Fold change /veh SOX15 (11748057_x_at) / RFU CD79A (11719716_a_at) / Fold change /veh CD79A (11719716_a_at) / RFU HIST1H1D (11736915_at) / Fold change /veh HIST1H1D (11736915_at) / RFU CASKIN2 (11723855_a_at) / Fold change /veh CASKIN2 (11723855_a_at) / RFU LOC730098 (11760151_x_at) / Fold change /veh LOC730098 (11760151_x_at) / RFU OR4N2 (11742367_at) / Fold change /veh OR4N2 (11742367_at) / RFU PRRT2 (11749266_a_at) / Fold change /veh PRRT2 (11749266_a_at) / RFU SNX32 (11753110_a_at) / Fold change /veh SNX32 (11753110_a_at) / RFU CDHR5 (11726645_a_at) / Fold change /veh CDHR5 (11726645_a_at) / RFU RCAN1 (11760418_a_at) / Fold change /veh RCAN1 (11760418_a_at) / RFU FAM167A (11723789_a_at) / Fold change /veh FAM167A (11723789_a_at) / RFU FAM26E (11764081_at) / Fold change /veh FAM26E (11764081_at) / RFU ISYNA1 (11749810_s_at) / Fold change /veh ISYNA1 (11749810_s_at) / RFU ACY1 (11761880_at) / Fold change /veh ACY1 (11761880_at) / RFU 11764098_at / Fold change /veh 11764098_at / RFU SAMD14 (11745864_x_at) / Fold change /veh SAMD14 (11745864_x_at) / RFU NPB (11741838_a_at) / Fold change /veh NPB (11741838_a_at) / RFU TMPRSS6 (11731388_a_at) / Fold change /veh TMPRSS6 (11731388_a_at) / RFU KRTAP10-2 (11738614_at) / Fold change /veh KRTAP10-2 (11738614_at) / RFU ARHGAP8 /// PRR5-ARHGAP8 (11727945_x_at) / Fold change /veh ARHGAP8 /// PRR5-ARHGAP8 (11727945_x_at) / RFU KRTAP5-7 /// NADSYN1 (11734609_at) / Fold change /veh KRTAP5-7 /// NADSYN1 (11734609_at) / RFU RASL12 (11751679_a_at) / Fold change /veh RASL12 (11751679_a_at) / RFU CDKN2B (11736163_a_at) / Fold change /veh CDKN2B (11736163_a_at) / RFU PRF1 (11729649_at) / Fold change /veh PRF1 (11729649_at) / RFU, ZNF638 /// ZNF638-IT1 / Fold change vs veh, ZNF638 /// ZNF638-IT1 / RFU, PANK3 / Fold change vs veh, PANK3 / RFU, SH3YL1 / Fold change vs veh, SH3YL1 / RFU, ZEB2 / Fold change vs veh, ZEB2 / RFU, NRIP1 / Fold change vs veh, NRIP1 / RFU, PTTG1IP / Fold change vs veh, PTTG1IP / RFU, CAPN2 / Fold change vs veh, CAPN2 / RFU, MED14 / Fold change vs veh, MED14 / RFU, SNORA58 / Fold change vs veh, SNORA58 / RFU, C1orf63 / Fold change vs veh, C1orf63 / RFU, LRRFIP1 / Fold change vs veh, LRRFIP1 / RFU, NDUFAF7 / Fold change vs veh, NDUFAF7 / RFU, SLC12A2 / Fold change vs veh, SLC12A2 / RFU, IBTK / Fold change vs veh, IBTK / RFU, ESF1 / Fold change vs veh, ESF1 / Fold change vs veh, TMEM50B / RFU, TAOK1 / Fold change vs veh, TAOK1 / RFU, ACBD3 / Fold change vs veh, ACBD3 / RFU, TMA16 / Fold change vs veh, TMA16 / RFU, RWDD3 / Fold change vs veh, RWDD3 / RFU, BCAT1 / Fold change vs veh, BCAT1 / RFU, EDEM3 / Fold change vs veh, EDEM3 / RFU, TMEM33 / Fold change vs veh, TMEM33 / RFU, WDR75 / Fold change vs veh, WDR75 / RFU, AHCTF1 / Fold change vs veh, AHCTF1 / RFU, TFRC / Fold change vs veh, TFRC / RFU, ZDHHC17 / Fold change vs veh, ZDHHC17 / RFU, NOM1 / Fold change vs veh, NOM1 / RFU, ARL8B / Fold change vs veh, ARL8B / RFU, ZBTB11 / Fold change vs veh, ZBTB11 / RFU, TAMM41 / Fold change vs veh, TAMM41 / RFU, KIAA1704 /// LOC100996395 / Fold change vs veh, KIAA1704 /// LOC100996395 / RFU, ING1 / Fold change vs veh, ING1 / RFU, TRMT61B / Fold change vs veh, TRMT61B / RFU, FUBP3 / Fold change vs veh, FUBP3 / RFU, TP53 / Fold change vs veh, TP53 / RFU, TNKS2 / Fold change vs veh, TNKS2 / RFU, ZFP14 / Fold change vs veh, ZFP14 / RFU, ACTR2 / Fold change vs veh, ACTR2 / RFU, PPP3R1 / Fold change vs veh, PPP3R1 / RFU, PIK3R1 / Fold change vs veh, PIK3R1 / RFU, HNRNPA1 / Fold change vs veh, HNRNPA1 / RFU, RNF170 / Fold change vs veh, RNF170 / RFU, ZNF28 / Fold change vs veh, ZNF28 / RFU, RNGTT / Fold change vs veh, RNGTT / RFU, OGT / Fold change vs veh, OGT / RFU, BRD1 / Fold change vs veh, BRD1 / RFU, MARS / Fold change vs veh, MARS / RFU, ZNF655 / Fold change vs veh, ZNF655 / RFU, FAHD1 / Fold change vs veh, FAHD1 / RFU, BDP1 / Fold change vs veh, BDP1 / RFU, LRRCC1 / Fold change vs veh, LRRCC1 / RFU, ARID1A / Fold change vs veh, ARID1A / RFU, ZNF146 / Fold change vs veh, ZNF146 / RFU, ZNF330 / Fold change vs veh, ZNF330 / RFU, GPN3 / Fold change vs veh, GPN3 / RFU, C9orf123 / Fold change vs veh, C9orf123 / RFU, N4BP2L2 / Fold change vs veh, N4BP2L2 / RFU, ARFIP1 / Fold change vs veh, ARFIP1 / RFU, FAM179B / Fold change vs veh, FAM179B / RFU, BCL10 / Fold change vs veh, BCL10 / RFU, UHRF1BP1L / Fold change vs veh, UHRF1BP1L / RFU, BET1 / Fold change vs veh, BET1 / RFU, CNOT2 / Fold change vs veh, CNOT2 / RFU, ZNF268 / Fold change vs veh, ZNF268 / Fold change vs veh, ZNF507 / RFU, DGCR2 / Fold change vs veh, DGCR2 / RFU, WDSUB1 / Fold change vs veh, WDSUB1 / Fold change vs veh, HSP90B1 /// MIR3652 / RFU, ADSS / Fold change vs veh, ADSS / RFU, GK / Fold change vs veh, GK / RFU, ZNF148 / Fold change vs veh, ZNF148 / RFU, TAF9 / Fold change vs veh, TAF9 / RFU, SLC1A5 / Fold change vs veh, SLC1A5 / RFU, SLMO2 / Fold change vs veh, SLMO2 / RFU, ABCC4 / Fold change vs veh, ABCC4 / RFU, LOC101060439 /// RAP1B / Fold change vs veh, LOC101060439 /// RAP1B / RFU, RFX7 / Fold change vs veh, RFX7 / RFU, GTPBP10 / Fold change vs veh, GTPBP10 / RFU, CNEP1R1 / Fold change vs veh, CNEP1R1 / RFU, BIVM-ERCC5 /// ERCC5 / Fold change vs veh, BIVM-ERCC5 /// ERCC5 / RFU, ILF3 / Fold change vs veh, ILF3 / RFU 11762660_at / Fold change /veh 11762660_at / RFU VCAN (11757783_s_at) / Fold change /veh VCAN (11757783_s_at) / RFU DDX43 (11728927_at) / Fold change /veh DDX43 (11728927_at) / RFU KRT8 (11758188_x_at) / Fold change /veh KRT8 (11758188_x_at) / RFU NKD1 (11759106_at) / Fold change /veh NKD1 (11759106_at) / RFU SRD5A1 (11742802_a_at) / Fold change /veh SRD5A1 (11742802_a_at) / RFU TPSAB1 /// TPSB2 (11721975_s_at) / Fold change /veh TPSAB1 /// TPSB2 (11721975_s_at) / RFU GSTM3 (11746129_a_at) / Fold change /veh GSTM3 (11746129_a_at) / RFU IL23R (11737362_x_at) / Fold change /veh IL23R (11737362_x_at) / RFU TMEM51 (11727254_a_at) / Fold change /veh TMEM51 (11727254_a_at) / RFU PIWIL2 (11732686_x_at) / Fold change /veh PIWIL2 (11732686_x_at) / RFU ORM1 (11744905_x_at) / Fold change /veh ORM1 (11744905_x_at) / RFU CCDC152 (11743942_at) / Fold change /veh CCDC152 (11743942_at) / RFU ECM1 (11717891_a_at) / Fold change /veh ECM1 (11717891_a_at) / RFU IL23R (11748794_a_at) / Fold change /veh IL23R (11748794_a_at) / RFU TNFAIP8L3 (11732012_x_at) / Fold change /veh TNFAIP8L3 (11732012_x_at) / RFU MBOAT4 (11741988_at) / Fold change /veh MBOAT4 (11741988_at) / RFU 11764193_at / Fold change /veh 11764193_at / RFU TMEM53 (11763286_at) / Fold change /veh TMEM53 (11763286_at) / RFU MAGEB2 (11727129_at) / Fold change /veh MAGEB2 (11727129_at) / RFU TMEM200A (11744735_a_at) / Fold change /veh TMEM200A (11744735_a_at) / RFU CCDC152 (11751479_a_at) / Fold change /veh CCDC152 (11751479_a_at) / RFU FAM211A (11726209_a_at) / Fold change /veh FAM211A (11726209_a_at) / RFU RGS16 (11746705_a_at) / Fold change /veh RGS16 (11746705_a_at) / RFU VCAN (11755009_s_at) / Fold change /veh VCAN (11755009_s_at) / RFU RHOB (11743442_s_at) / Fold change /veh RHOB (11743442_s_at) / RFU RGS16 (11720943_a_at) / Fold change /veh RGS16 (11720943_a_at) / RFU RGS16 (11720944_at) / Fold change /veh RGS16 (11720944_at) / RFU, VPS4B / Fold change vs veh, VPS4B / RFU, CREB1 / Fold change vs veh, CREB1 / RFU, DNAJC13 / Fold change vs veh, DNAJC13 / RFU, GNAQ / Fold change vs veh, GNAQ / RFU, CDK5R1 / Fold change vs veh, CDK5R1 / RFU, ZRANB3 / Fold change vs veh, ZRANB3 / RFU, CUL4A / Fold change vs veh, CUL4A / RFU, CCNY / Fold change vs veh, CCNY / RFU, UFL1 / Fold change vs veh, UFL1 / RFU, COG3 / Fold change vs veh, COG3 / RFU, DIAPH2 / Fold change vs veh, DIAPH2 / RFU, SKA2 / Fold change vs veh, SKA2 / RFU, AFF3 / Fold change vs veh, AFF3 / RFU, LMF1 / Fold change vs veh, LMF1 / RFU, IPO11 / Fold change vs veh, IPO11 / RFU, DFFB / Fold change vs veh, DFFB / RFU, FOXP1 / Fold change vs veh, FOXP1 / RFU, CARD8 / Fold change vs veh, CARD8 / RFU, STRN3 / Fold change vs veh, STRN3 / RFU, ADK / Fold change vs veh, ADK / RFU, RASSF2 / Fold change vs veh, RASSF2 / RFU, WIPF1 / Fold change vs veh, WIPF1 / RFU, LARP1B / Fold change vs veh, LARP1B / RFU, RASA1 / Fold change vs veh, RASA1 / RFU, RB1 / Fold change vs veh, RB1 / RFU, PPFIA1 / Fold change vs veh, PPFIA1 / RFU, MAT2A / Fold change vs veh, MAT2A / RFU, CCT5 / Fold change vs veh, CCT5 / RFU, WDR92 / Fold change vs veh, WDR92 / RFU, CUX1 / Fold change vs veh, CUX1 / RFU, TTC7A / Fold change vs veh, TTC7A / RFU, TMEM135 / Fold change vs veh, TMEM135 / RFU, DEPTOR / Fold change vs veh, DEPTOR / RFU, CPM / Fold change vs veh, CPM / RFU, DNAJB6 / Fold change vs veh, DNAJB6 / RFU, CACNA2D3 / Fold change vs veh, CACNA2D3 / RFU, DTX4 / Fold change vs veh, DTX4 / RFU, TFCP2 / Fold change vs veh, TFCP2 / RFU, GMCL1 /// GMCL1P1 / Fold change vs veh, GMCL1 /// GMCL1P1 / RFU, AEBP2 / Fold change vs veh, AEBP2 / RFU, SNHG1 /// SNORD22 /// SNORD25 /// SNORD26 /// SNORD27 /// SNORD28 /// SNORD29 /// SNORD31 / Fold change vs veh, SNHG1 /// SNORD22 /// SNORD25 /// SNORD26 /// SNORD27 /// SNORD28 /// SNORD29 /// SNORD31 / Fold change (Aza/veh), C12orf56 (ProbeSet 11735607_a_at) / Fold change (ACY-1035/veh), C12orf56 (ProbeSet 11735607_a_at) / Fold change (Aza/veh), FGFR1OP (ProbeSet 11751329_s_at) / Fold change (ACY-1035/veh), FGFR1OP (ProbeSet 11751329_s_at) / Fold change (Aza/veh), VPS36 (ProbeSet 11739960_a_at) / Fold change (ACY-1035/veh), VPS36 (ProbeSet 11739960_a_at) / RFU SYPL1 (11715823_x_at) / Fold change /veh SYPL1 (11715823_x_at) / RFU IGFBP7 (11715501_s_at) / Fold change /veh IGFBP7 (11715501_s_at) / RFU REEP3 (11722064_at) / Fold change /veh REEP3 (11722064_at) / RFU IGLL1 (11728026_x_at) / Fold change /veh IGLL1 (11728026_x_at): dose or concentration left out as unconfirmed
Settings: MV-4-11 cells, 48 hours

SMILES: Nc1ncn([C@@H]2O[C@H](CO)[C@@H](O)[C@H]2O)c(=O)n1 [azacitidine]
- Fold change /veh RGS16 (11720944_at): 1.54
